pIC50: −log10 of the molar value.
Biological target: T1, BTK (Homo sapiens, UniProt Q06187)
T1 construct: purchased Upstate 14-552
Test: In vitro BTK kinase assay: BTK-POLYGAT-LS ASSAY
Assay type: biochemical
Settings: ATP 10 uM
Summary of the method: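 BTK phosphorylation of polyGAT (100 nM final) with ATP at 10 μM final, 10 mM Tris-HCl pH 7.5 kinase buffer, quenched by EDTA after 30 min. Potency given as IC50.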

T1 sequence (Q06187 whole entry): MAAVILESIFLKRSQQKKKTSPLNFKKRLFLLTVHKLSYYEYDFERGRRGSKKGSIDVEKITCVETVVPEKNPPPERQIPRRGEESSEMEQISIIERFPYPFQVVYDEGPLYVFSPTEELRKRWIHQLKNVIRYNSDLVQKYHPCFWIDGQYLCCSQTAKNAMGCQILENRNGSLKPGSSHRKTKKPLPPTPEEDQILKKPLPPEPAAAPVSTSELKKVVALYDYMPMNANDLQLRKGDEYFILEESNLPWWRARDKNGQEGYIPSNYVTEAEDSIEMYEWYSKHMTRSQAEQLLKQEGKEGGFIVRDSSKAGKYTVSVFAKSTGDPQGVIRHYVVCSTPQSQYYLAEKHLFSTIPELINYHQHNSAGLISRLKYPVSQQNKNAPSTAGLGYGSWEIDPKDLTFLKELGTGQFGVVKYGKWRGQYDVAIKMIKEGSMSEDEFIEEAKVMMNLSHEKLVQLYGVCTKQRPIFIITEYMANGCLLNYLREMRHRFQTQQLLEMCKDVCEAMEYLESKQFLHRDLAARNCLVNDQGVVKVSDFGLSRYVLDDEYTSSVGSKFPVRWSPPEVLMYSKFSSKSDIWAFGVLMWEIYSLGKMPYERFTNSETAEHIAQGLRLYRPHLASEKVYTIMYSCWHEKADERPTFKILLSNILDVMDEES

| Compound | pIC50 |
| --- | --- |
| CC(C)(Nc1ccccc1)C(=O)N[C@@H]1CCCN(c2ncnc3[nH]ccc23)C1 [Example 128, (R)—N-(1-(7H-pyrrolo[2,3-d]pyrimidin-4-yl)piperidin-3-yl)-2-methyl-2-(phenylamino)propanamide] | 5.00 to 6.00 |
| O=C(CNc1cccc(N2CCNC2=O)c1)NC1CCCN(c2ncnc3[nH]ccc23)C1 (centres unmarked) [Example 337] | < 5.00 |
| CN(C(=O)CNc1ccccc1)C1CCCN(c2ncnc3[nH]ccc23)C1 (centres unmarked) [Example 223] | 6.00 to 7.00 |
| O=C(CNc1ccccc1S(=O)(=O)N1CCCCC1)NC1CCCCN(c2ncnc3[nH]ncc23)C1 (centres unmarked) [Example 170] | > 7.00 |
| O=C(CNc1cc(C(F)(F)F)ccc1N1CCCC1)N[C@@H]1CCCN(c2ncnc3[nH]ccc23)C1 [Example 278] | 6.00 to 7.00 |
| CCCC[C@@H](Nc1cc(F)cc(Cl)c1)C(=O)N[C@@H]1CCCN(c2ncnc3[nH]ncc23)C1 [Example 193] | > 7.00 |
| COc1ccc(C(C)(C)C)cc1NCC(=O)N[C@@H]1CCCN(c2ncnc3[nH]ccc23)C1 [Example 442] | 5.00 to 6.00 |
| O=C(N[C@@H]1CCCN(c2ncnc3[nH]ccc23)C1)[C@H](Nc1cccc(Cl)c1)C1CC1 [Example 119, (R)—N—((R)-1-(7H-pyrrolo[2,3-d]pyrimidin-4-yl)piperidin-3-yl)-2-(3-chlorophenylamino)-2-cyclopropylacetamide] | > 7.00 |
| CCC[C@@H](Nc1ccccc1C(C)C)C(=O)N[C@@H]1CCCN(c2ncnc3[nH]ccc23)C1 [Example 279] | 6.00 to 7.00 |
| O=C(CNc1ccc(F)c(I)c1)N[C@@H]1CCCN(c2ncnc3[nH]ccc23)C1 [Example 275] | 6.00 to 7.00 |
| Cc1nc(-c2cccc(NCC(=O)N[C@@H]3CCCN(c4ncnc5[nH]ccc45)C3)c2)cs1 [Example 289] | 6.00 to 7.00 |
| O=C(CNc1ccccc1C(=O)N1CCOCC1)N[C@@H]1CCCN(c2ncnc3[nH]ccc23)C1 [Example 374] | 6.00 to 7.00 |
| O=C(CNc1ccc(F)c(C(F)(F)F)c1)NC1CCCN(c2ncnc3[nH]ccc23)C1 (centres unmarked) [Example 74, (N-(1-(7H-pyrrolo[2,3-d]pyrimidin-4-yl)piperidin-3-yl)-2-(4-fluoro-3-(trifluoromethyl)phenylamino)acetamide)] | 5.00 to 6.00 |
| O=C(CNc1ccccc1S(=O)(=O)N1CCC(C(F)(F)F)CC1)N[C@@H]1CCCN(c2ncnc3[nH]ccc23)C1 [Example 217] | > 7.00 |
| O=C1CCc2c(ncnc2N2CCC[C@@H](NC(=O)[C@H](Nc3cc(F)cc(Cl)c3)C3CC3)C2)N1 [Example 135, (R)-2-(3-chloro-5-fluorophenylamino)-2-cyclopropyl-N—((R)-1-(7-oxo-5,6,7,8-tetrahydropyrido[2,3-d]pyrimidin-4-yl)piperidin-3-yl)acetamide] | 6.00 to 7.00 |
| COc1c(Cl)cccc1NCC(=O)NC1CCCN(c2ncnc3[nH]ccc23)C1 (centres unmarked) [Example 53, (N-(1-(7H-pyrrolo[2,3-d]pyrimidin-4-yl)piperidin-3-yl)-2-(3-chloro-2-methoxyphenylamino)acetamide)] | 6.00 to 7.00 |
| O=C(CNc1cccc2c1CCCC2)NC1CCCN(c2ncnc3[nH]ccc23)C1 (centres unmarked) [Example 41, (N-(1-(7H-pyrrolo[2,3-d]pyrimidin-4-yl)piperidin-3-yl)-2-(5,6,7,8-tetrahydronaphthalen-1-ylamino)acetamide)] | > 7.00 |
| O=C(CNc1ccccc1OC1CCCC1)N[C@@H]1CCCN(c2ncnc3[nH]ccc23)C1 [Example 222] | > 7.00 |
| O=C(CNc1cccc(N2CCCC2=O)c1)NC1CCCN(c2ncnc3[nH]ccc23)C1 (centres unmarked) [Example 338] | 5.00 to 6.00 |

| Compound | pIC50 |
| --- | --- |
| CC(C)c1ccccc1N[C@@H](C(=O)N[C@@H]1CCCN(c2ncnc3[nH]ncc23)C1)C1CC1 [Example 234] | 6.00 to 7.00 |
| O=C(CNc1ccc(Cl)c(Cl)c1)N[C@@H]1CCCN(c2ncnc3[nH]ccc23)C1 [Example 286] | 6.00 to 7.00 |
| CC(C)c1ccccc1N[C@@H](C(=O)N[C@@H]1CCCN(c2ncnc3[nH]ccc23)C1)C(C)C [Example 263] | 6.00 to 7.00 |
| Cn1ccc(-c2cccc(NCC(=O)NC3CCCN(c4ncnc5[nH]ccc45)C3)c2)n1 (centres unmarked) [Example 60] | 5.00 to 6.00 |
| O=C(CNc1cccnc1)NC1CCCN(c2ncnc3[nH]ccc23)C1 (centres unmarked) [Example 59, (N-(1-(7H-pyrrolo[2,3-d]pyrimidin-4-yl)piperidin-3-yl)-2-(pyridin-3-ylamino)acetamide)] | < 5.00 |
| O=C(N[C@@H]1CCCN(c2ncnc3[nH]ccc23)C1)[C@H](Nc1cc(F)cc(F)c1)C1CC1 [Example 120, (R)—N—((R)-1-(7H-pyrrolo[2,3-d]pyrimidin-4-yl)piperidin-3-yl)-2-cyclopropyl-2-(3,5-difluorophenylamino)acetamide] | > 7.00 |
| CN(C)S(=O)(=O)c1ccccc1NCC(=O)N[C@@H]1CCCN(c2ncnc3[nH]ncc23)C1 [Example 375] | 6.00 to 7.00 |
| O=C(CNc1ccccc1S(=O)(=O)N1CCC(C(F)(F)F)CC1)N[C@@H]1CCCN(c2ncnc3[nH]ncc23)C1 [Example 228] | > 7.00 |
| O=C(CNc1ccccc1S(=O)(=O)N1CCOCC1)N[C@@H]1CCCN(c2ncnc3[nH]ncc23)C1 [Example 242] | > 7.00 |
| O=C(CNc1ccccc1OCCc1ccccc1)N[C@@H]1CCCN(c2ncnc3[nH]ccc23)C1 [Example 221] | > 7.00 |
| CCOc1ccccc1NCC(=O)N[C@@H]1CCCN(c2ncnc3[nH]ccc23)C1 [Example 310] | 6.00 to 7.00 |
| Cc1cc(NCC(=O)NC2CCCN(c3ncnc4[nH]ccc34)C2)n(C(C)(C)C)n1 (centres unmarked) [Example 58, (N-(1-(7H-pyrrolo[2,3-d]pyrimidin-4-yl)piperidin-3-yl)-2-(1-tert-butyl-3-methyl-1H-pyrazol-5-ylamino)acetamide)] | < 5.00 |
| CNC(=O)c1cccc(NCC(=O)NC2CCCN(c3ncnc4[nH]ccc34)C2)c1 (centres unmarked) [Example 339] | < 5.00 |
| COCCOc1ccc(C(F)(F)F)cc1NCC(=O)N[C@@H]1CCCN(c2ncnc3[nH]ccc23)C1 [Example 455] | 6.00 to 7.00 |
| C[C@@H](O)[C@@H](Nc1cc(F)cc(Cl)c1)C(=O)N[C@H]1CN(c2ncnc3[nH]ncc23)CC[C@@H]1C [Example 226] | > 7.00 |
| O=C(CNc1cc(F)c(F)c(F)c1)N[C@@H]1CCCN(c2ncnc3[nH]ccc23)C1 [Example 285] | 6.00 to 7.00 |
| COc1ccc(NCC(=O)NC2CCCN(c3ncnc4[nH]ccc34)C2)cc1 (centres unmarked) [Example 348] | < 5.00 |
| O=C(CNc1cccc(OC(F)(F)C(F)F)c1)N[C@@H]1CCCN(c2ncnc3[nH]ccc23)C1 [Example 441] | 6.00 to 7.00 |
| C#Cc1cccc(NCC(=O)NC2CCCN(c3ncnc4[nH]ccc34)C2)c1 (centres unmarked) [Example 55, (N-(1-(7H-pyrrolo[2,3-d]pyrimidin-4-yl)piperidin-3-yl)-2-(3-ethynylphenylamino)acetamide)] | > 7.00 |

| Compound | pIC50 |
| --- | --- |
| CC(C)n1ccc(NCC(=O)NC2CCCN(c3ncnc4[nH]ccc34)C2)n1 (centres unmarked) [Example 331] | < 5.00 |
| CCC[C@@H](Nc1cc(Cl)cc(Cl)c1)C(=O)N[C@@H]1CCCN(c2ncnc3[nH]ncc23)C1 [Example 166] | > 7.00 |
| Cc1c(Cl)cccc1NCC(=O)N[C@@H]1CCCN(c2ncnc3[nH]ccc23)C1 [Example 261] | 6.00 to 7.00 |
| CN(CC(=O)NC1CCCN(c2ncnc3[nH]ccc23)C1)c1ccccc1 (centres unmarked) [Example 16, (N-(1-(7H-pyrrolo[2,3-d]pyrimidin-4-yl)piperidin-3-yl)-2-(methyl(phenyl)amino)acetamide)] | 5.00 to 6.00 |
| O=C([C@H](Nc1cc(F)cc(Cl)c1)C1CC1)N1CCCCC12CCCN(c1ncnc3[nH]ccc13)C2 (some centres unmarked) [Example 379] | 5.00 to 6.00 |
| O=C(CNc1ccc(F)cc1F)NC1CCCN(c2ncnc3[nH]ccc23)C1 (centres unmarked) [Example 67, (N-(1-(7H-pyrrolo[2,3-d]pyrimidin-4-yl)piperidin-3-yl)-2-(2,4-difluorophenylamino)acetamide)] | 6.00 to 7.00 |
| O=C(N[C@@H]1CCCN(c2ncnc3[nH]ccc23)C1)C(Nc1cc(F)cc(Cl)c1)C1COC1 (some centres unmarked) [Example 387] | 5.00 to 6.00 |
| CC1CN(S(=O)(=O)c2ccccc2NCC(=O)N[C@@H]2CCCN(c3ncnc4[nH]ccc34)C2)CC(C)O1 (some centres unmarked) [Example 378] | 6.00 to 7.00 |
| O=C(N[C@@H]1CCCN(c2ncnc3[nH]ccc23)C1)[C@H](Nc1cc(F)cc(C(F)(F)F)c1)C1CC1 [Example 121, (R)—N—((R)-1-(7H-pyrrolo[2,3-d]pyrimidin-4-yl)piperidin-3-yl)-2-cyclopropyl-2-(3-fluoro-5-(trifluoromethyl)phenylamino)acetamide] | > 7.00 |
| O=C(Cc1ccccc1)NCC(=O)NC1CCCN(c2ncnc3[nH]ccc23)C1 (centres unmarked) [Example 96, (N-(1-(7H-pyrrolo[2,3-d]pyrimidin-4-yl)piperidin-3-yl)-2-(2-phenylacetamido)acetamide)] | 5.00 to 6.00 |
| O=C(N[C@@H]1CCCN(c2ncnc3[nH]ccc23)C1)[C@H](Nc1ccccc1)c1ccccc1 [Example 106, (R)—N—((R)-1-(7H-pyrrolo[2,3-d]pyrimidin-4-yl)piperidin-3-yl)-2-phenyl-2-(phenylamino)acetamide] | < 5.00 |
| Cc1ccc(NCC(=O)N[C@@H]2CCCN(c3ncnc4[nH]ccc34)C2)cc1F [Example 293] | 6.00 to 7.00 |
| CC1CCCN(S(=O)(=O)c2ccccc2NCC(=O)N[C@@H]2CCCN(c3ncnc4[nH]ncc34)C2)C1 (some centres unmarked) [Example 370] | > 7.00 |
| CC(O)c1cccc(NCC(=O)N[C@@H]2CCCN(c3ncnc4[nH]ccc34)C2)c1 (some centres unmarked) [Example 397] | 5.00 to 6.00 |
| O=C(CNC1CCCN(c2ncnc3[nH]ccc23)C1)Nc1ccccc1 (centres unmarked) [Example 363] | < 5.00 |
| O=C(CNc1ccccc1OC1CCCC1)N[C@@H]1CCCN(c2ncnc3[nH]ncc23)C1 [Example 245] | > 7.00 |
| CNc1cc(N2CCC[C@@H](NC(=O)CNc3cc(Cl)cc(Cl)c3)C2)ncn1 [Example 144, (R)-2-(3,5-dichlorophenylamino)-N-(1-(6-(methylamino)pyrimidin-4-yl)piperidin-3-yl)acetamide] | 6.00 to 7.00 |
| CN(C)S(=O)(=O)c1ccc(F)cc1NCC(=O)N[C@@H]1CCCN(c2ncnc3[nH]ccc23)C1 [Example 246] | 6.00 to 7.00 |

From patent publication US9029359B2, “Heteroaryl Btk inhibitors” (Biogen Idec MA, Inc., priority 2009, dated 2015)
